In PMC7026418, “The kinase polypharmacology landscape of clinical PARP inhibitors” (Scientific Reports, 2020):
Read-outs that look alike come from different tables or passages of the source.

What was measured:
Test in all cases: biochemical
Design in all cases: DiscoveRx KINOMEscan active site-directed competition binding; percent of control kinase bound to immobilised ligand
GCN2(Kin.Dom.2,S808G) = target: T1, GCN2(Kin.Dom.2,S808G) (Homo sapiens, UniProt Q9P2K8, S808G)
T1 construct: gene EIF2AK4; Kin.Dom.2
T1 sequence (Q9P2K8 whole entry S808G): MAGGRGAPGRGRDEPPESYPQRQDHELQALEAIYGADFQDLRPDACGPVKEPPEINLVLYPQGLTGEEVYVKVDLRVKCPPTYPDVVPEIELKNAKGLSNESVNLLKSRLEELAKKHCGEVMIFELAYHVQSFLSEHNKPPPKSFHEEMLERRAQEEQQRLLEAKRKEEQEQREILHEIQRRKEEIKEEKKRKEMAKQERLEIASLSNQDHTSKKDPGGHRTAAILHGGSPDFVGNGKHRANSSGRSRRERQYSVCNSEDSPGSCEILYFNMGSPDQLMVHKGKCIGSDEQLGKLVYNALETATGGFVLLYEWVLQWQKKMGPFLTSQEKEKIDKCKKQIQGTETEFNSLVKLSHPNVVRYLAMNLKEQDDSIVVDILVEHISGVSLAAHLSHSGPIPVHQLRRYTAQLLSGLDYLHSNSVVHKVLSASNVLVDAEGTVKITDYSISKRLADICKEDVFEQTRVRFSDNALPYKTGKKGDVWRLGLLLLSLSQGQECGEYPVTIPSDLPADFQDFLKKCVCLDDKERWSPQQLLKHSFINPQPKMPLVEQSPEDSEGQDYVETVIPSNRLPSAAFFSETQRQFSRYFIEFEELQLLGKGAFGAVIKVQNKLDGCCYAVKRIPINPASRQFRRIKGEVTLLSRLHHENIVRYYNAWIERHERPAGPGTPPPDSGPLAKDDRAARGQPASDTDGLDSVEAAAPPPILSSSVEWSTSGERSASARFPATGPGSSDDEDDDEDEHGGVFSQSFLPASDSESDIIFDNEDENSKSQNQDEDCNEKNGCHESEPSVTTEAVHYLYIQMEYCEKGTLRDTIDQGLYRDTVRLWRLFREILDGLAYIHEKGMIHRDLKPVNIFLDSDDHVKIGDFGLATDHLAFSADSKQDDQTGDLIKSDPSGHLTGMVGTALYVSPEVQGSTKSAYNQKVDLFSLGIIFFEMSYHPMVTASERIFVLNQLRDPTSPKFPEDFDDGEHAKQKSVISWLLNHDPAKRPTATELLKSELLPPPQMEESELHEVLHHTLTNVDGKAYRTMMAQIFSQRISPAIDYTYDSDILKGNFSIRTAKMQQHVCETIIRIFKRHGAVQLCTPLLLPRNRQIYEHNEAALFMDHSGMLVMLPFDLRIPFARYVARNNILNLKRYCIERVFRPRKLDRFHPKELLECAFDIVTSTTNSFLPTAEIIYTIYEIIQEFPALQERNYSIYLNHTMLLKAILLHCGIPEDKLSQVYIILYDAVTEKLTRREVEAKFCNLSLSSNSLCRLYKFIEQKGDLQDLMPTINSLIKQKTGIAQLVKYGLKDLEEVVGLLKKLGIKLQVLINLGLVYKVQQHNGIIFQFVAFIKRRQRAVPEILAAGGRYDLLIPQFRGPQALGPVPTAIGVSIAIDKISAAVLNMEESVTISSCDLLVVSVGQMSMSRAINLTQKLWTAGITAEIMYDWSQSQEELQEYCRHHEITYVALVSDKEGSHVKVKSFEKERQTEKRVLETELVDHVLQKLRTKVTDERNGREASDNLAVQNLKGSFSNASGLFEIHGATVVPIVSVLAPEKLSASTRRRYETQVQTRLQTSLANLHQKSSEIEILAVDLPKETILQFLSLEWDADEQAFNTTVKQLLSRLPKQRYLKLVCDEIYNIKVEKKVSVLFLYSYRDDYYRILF

LZK = target: T2, LZK (Homo sapiens, UniProt O43283)
T2 construct: gene MAP3K13
T2 sequence (O43283 1-966): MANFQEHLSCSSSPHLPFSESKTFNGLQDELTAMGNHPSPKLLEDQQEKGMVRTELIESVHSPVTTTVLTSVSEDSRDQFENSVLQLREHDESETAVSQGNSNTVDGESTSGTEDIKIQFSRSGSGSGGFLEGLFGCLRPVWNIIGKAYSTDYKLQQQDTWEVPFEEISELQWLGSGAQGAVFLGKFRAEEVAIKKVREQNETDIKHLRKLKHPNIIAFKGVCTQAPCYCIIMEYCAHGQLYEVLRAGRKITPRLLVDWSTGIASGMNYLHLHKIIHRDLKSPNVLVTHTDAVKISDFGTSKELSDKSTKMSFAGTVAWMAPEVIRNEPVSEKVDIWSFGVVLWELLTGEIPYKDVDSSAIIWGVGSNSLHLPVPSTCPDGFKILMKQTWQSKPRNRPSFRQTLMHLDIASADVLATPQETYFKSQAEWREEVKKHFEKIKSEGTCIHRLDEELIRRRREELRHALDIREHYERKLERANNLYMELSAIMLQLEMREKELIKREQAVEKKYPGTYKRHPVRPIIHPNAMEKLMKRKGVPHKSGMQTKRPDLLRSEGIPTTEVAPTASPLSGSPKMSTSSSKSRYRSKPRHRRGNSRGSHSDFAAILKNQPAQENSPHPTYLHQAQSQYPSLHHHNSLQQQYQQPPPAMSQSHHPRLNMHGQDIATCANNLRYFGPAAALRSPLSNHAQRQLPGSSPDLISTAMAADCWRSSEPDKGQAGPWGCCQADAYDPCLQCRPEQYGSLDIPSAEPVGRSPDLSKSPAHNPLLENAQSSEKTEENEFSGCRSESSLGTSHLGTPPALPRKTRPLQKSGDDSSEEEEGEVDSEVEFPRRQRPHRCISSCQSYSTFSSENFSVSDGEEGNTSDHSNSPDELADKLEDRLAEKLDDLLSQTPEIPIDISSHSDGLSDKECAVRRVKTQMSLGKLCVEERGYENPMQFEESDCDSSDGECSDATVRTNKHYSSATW

MEK1 = target: T3, MEK1 (Homo sapiens, UniProt Q02750)
T3 construct: gene MAP2K1
T3 sequence (Q02750 whole entry): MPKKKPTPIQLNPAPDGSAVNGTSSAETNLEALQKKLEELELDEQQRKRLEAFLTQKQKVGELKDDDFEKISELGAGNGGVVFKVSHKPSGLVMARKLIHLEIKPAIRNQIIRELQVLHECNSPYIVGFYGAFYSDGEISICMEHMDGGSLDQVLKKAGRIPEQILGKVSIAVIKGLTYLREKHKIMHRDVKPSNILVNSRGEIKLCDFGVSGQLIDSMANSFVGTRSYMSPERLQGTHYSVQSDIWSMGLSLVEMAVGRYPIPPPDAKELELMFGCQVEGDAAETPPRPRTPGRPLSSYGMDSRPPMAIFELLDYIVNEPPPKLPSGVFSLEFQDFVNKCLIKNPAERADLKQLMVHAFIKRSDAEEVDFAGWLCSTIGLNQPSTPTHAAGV

NDR1 = target: T4, NDR1 (Homo sapiens, UniProt Q15208)
T4 construct: gene STK38
T4 sequence (Q15208 whole entry): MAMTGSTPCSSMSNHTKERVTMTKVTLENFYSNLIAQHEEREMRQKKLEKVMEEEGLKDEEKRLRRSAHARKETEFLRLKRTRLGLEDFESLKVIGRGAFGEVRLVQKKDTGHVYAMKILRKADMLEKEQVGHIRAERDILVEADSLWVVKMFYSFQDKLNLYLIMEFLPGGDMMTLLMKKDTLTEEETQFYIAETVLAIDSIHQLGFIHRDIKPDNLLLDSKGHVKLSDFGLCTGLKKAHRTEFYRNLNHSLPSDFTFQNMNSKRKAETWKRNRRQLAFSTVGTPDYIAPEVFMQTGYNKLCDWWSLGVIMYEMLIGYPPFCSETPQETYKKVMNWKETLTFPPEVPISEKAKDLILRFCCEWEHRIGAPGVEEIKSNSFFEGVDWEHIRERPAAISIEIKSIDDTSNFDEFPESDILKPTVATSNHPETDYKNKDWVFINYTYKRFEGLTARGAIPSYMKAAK

[1] = target: T5, RSK2(Kin.Dom.2-C-terminal) (Homo sapiens, UniProt P51812)
T5 construct: gene RPS6KA3; Kin.Dom.2-C-terminal
T5 sequence (P51812 whole entry): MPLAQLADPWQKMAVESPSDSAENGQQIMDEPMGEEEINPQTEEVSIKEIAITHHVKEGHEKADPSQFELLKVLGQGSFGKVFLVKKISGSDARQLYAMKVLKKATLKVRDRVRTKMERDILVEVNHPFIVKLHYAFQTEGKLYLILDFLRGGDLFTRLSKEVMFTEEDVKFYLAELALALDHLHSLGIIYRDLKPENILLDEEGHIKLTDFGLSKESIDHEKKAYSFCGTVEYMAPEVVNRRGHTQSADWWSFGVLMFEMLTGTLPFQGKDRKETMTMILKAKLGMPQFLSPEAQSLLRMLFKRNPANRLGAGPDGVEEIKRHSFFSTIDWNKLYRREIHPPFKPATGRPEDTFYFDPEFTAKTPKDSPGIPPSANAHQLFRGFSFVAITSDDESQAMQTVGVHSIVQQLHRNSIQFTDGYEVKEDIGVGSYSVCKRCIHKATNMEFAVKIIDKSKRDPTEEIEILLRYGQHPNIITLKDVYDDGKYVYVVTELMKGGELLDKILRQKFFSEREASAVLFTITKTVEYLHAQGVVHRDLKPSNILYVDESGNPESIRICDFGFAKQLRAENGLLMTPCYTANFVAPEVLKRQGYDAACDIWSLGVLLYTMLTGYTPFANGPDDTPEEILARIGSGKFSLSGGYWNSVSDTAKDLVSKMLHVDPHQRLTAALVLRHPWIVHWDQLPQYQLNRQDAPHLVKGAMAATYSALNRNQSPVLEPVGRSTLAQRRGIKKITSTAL

[2] = target: T6, RSK3(Kin.Dom.1-N-terminal) (Homo sapiens, UniProt Q15349)
T6 construct: gene RPS6KA2; Kin.Dom.1-N-terminal
T6 sequence (Q15349 whole entry): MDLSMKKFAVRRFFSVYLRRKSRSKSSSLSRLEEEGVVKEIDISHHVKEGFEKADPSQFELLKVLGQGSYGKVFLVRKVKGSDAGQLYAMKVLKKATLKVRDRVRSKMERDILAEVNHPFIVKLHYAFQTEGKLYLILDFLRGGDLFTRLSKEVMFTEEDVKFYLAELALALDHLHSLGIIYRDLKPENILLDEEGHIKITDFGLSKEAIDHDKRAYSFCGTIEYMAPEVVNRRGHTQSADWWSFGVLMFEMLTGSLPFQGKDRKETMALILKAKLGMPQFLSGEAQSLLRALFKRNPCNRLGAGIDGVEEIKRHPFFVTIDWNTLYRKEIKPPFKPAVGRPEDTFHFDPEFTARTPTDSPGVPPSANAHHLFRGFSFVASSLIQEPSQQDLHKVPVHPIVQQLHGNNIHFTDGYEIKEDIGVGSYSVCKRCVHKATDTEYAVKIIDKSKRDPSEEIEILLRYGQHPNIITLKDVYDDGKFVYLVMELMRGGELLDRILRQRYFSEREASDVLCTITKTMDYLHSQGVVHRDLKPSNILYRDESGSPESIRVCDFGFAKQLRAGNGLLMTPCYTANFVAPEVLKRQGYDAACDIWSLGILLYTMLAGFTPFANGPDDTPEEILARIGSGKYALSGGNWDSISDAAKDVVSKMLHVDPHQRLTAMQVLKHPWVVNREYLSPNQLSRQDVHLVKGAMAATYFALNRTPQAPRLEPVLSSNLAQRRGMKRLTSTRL

TEC = target: T7, TEC (Homo sapiens, UniProt P42680)
T7 sequence (P42680 1-631): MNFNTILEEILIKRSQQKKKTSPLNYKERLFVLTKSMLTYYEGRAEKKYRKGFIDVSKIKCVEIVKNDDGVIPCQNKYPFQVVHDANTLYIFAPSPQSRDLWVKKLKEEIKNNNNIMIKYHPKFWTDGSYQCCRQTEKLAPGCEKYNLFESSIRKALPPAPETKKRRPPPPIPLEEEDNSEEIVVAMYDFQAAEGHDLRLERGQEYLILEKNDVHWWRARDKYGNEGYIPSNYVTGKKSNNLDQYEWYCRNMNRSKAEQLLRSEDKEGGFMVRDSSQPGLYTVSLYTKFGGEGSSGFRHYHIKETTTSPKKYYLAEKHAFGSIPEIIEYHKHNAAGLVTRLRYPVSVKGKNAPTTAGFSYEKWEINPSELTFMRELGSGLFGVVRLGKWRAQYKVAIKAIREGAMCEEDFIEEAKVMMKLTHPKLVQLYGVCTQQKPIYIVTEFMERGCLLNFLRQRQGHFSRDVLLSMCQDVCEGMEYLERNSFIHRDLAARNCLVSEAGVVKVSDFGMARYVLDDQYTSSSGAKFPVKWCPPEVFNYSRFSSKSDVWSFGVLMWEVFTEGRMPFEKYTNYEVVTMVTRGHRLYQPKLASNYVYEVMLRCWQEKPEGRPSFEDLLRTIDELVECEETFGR

YANK2 = target: T8, YANK2 (Homo sapiens, UniProt Q9NY57)
T8 construct: gene STK32B
T8 sequence (Q9NY57 whole entry): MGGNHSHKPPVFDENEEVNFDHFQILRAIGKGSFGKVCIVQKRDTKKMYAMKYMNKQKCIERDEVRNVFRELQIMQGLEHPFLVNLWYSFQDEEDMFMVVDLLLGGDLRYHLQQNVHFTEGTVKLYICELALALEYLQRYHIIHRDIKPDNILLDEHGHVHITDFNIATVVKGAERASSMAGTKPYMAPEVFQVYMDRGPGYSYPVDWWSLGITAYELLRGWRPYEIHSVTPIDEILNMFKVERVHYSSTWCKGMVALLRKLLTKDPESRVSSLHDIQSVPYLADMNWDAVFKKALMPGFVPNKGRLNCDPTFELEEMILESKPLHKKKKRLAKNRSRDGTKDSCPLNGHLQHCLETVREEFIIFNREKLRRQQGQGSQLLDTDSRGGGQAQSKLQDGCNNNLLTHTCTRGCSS

[3] = read-out: Talazoparib (BMN 673) / %Ctrl @ 10000nM
[4] = read-out: Olaparib / %Ctrl @ 10000nM
[5] = read-out: Niraparib (MK-4827) / %Ctrl @ 10000nM
[6] = read-out: Rucaparib / %Ctrl @ 10000nM, binding competition, % of control

Cn1ncnc1[C@H]1c2n[nH]c(=O)c3cc(F)cc(c23)N[C@@H]1c1ccc(F)cc1 [Talazoparib]
percent of control binding at 10 µM (GCN2(Kin.Dom.2,S808G); [3]): 100%
percent of control binding at 10 µM (LZK; [3]): 100%
percent of control binding at 10 µM (MEK1; [3]): 67%
percent of control binding at 10 µM (NDR1; [3]): 72%
percent of control binding at 10 µM [1, 3]: 100%
percent of control binding at 10 µM [2, 3]: 84%
percent of control binding at 10 µM (TEC; [3]): 92%
percent of control binding at 10 µM (YANK2; [3]): 91%

O=C(c1cc(Cc2n[nH]c(=O)c3ccccc23)ccc1F)N1CCN(C(=O)C2CC2)CC1 [Olaparib]
percent of control binding at 10 µM (GCN2(Kin.Dom.2,S808G); [4]): 93%
percent of control binding at 10 µM (LZK; [4]): 100%
percent of control binding at 10 µM (MEK1; [4]): 79%
percent of control binding at 10 µM (NDR1; [4]): 100%
percent of control binding at 10 µM [1, 4]: 72%
percent of control binding at 10 µM [2, 4]: 97%
percent of control binding at 10 µM (TEC; [4]): 100%
percent of control binding at 10 µM (YANK2; [4]): 94%

NC(=O)c1cccc2cn(-c3ccc([C@@H]4CCCNC4)cc3)nc12 [Niraparib]
percent of control binding at 10 µM (GCN2(Kin.Dom.2,S808G); [5]): 83%
percent of control binding at 10 µM (LZK; [5]): 96%
percent of control binding at 10 µM (MEK1; [5]): 79%
percent of control binding at 10 µM (NDR1; [5]): 100%
percent of control binding at 10 µM [1, 5]: 100%
percent of control binding at 10 µM [2, 5]: 74%
percent of control binding at 10 µM (TEC; [5]): 76%
percent of control binding at 10 µM (YANK2; [5]): 100%

CNCc1ccc(-c2[nH]c3cc(F)cc4c3c2CCNC4=O)cc1 [Rucaparib]
percent of control binding at 10 µM (GCN2(Kin.Dom.2,S808G); [6]): 55%
percent of control binding at 10 µM (LZK; [6]): 100%
percent of control binding at 10 µM (MEK1; [6]): 69%
percent of control binding at 10 µM (NDR1; [6]): 69%
percent of control binding at 10 µM [1, 6]: 64%
percent of control binding at 10 µM [2, 6]: 99%
percent of control binding at 10 µM (TEC; [6]): 100%
percent of control binding at 10 µM (YANK2; [6]): 100%
